Data taken from patent US20170328922A1, “METHODS AND PRODUCTS FOR LABELLING LIPIDS” (UNIVERSITY OF SOUTH AUSTRALIA, priority 2014, published 2017).

What was measured:
[1] = Rhenium molecular probe-lipid overlay (dot blot); assay type: binding; design: key to interaction with Lysophosphatidic acid (dot blot): ✓ indicates a positive interaction; x indicates no interaction
Procedure: (§1) The experimental protocol probe-lipid overlay was as follows: 50 μM of each lipids was loaded on to PVDF membranes (Perkin Elmer, USA), which were then incubated with molecular probes. PhenCyano and PhenPyridyl were assessed against eleven lipids including; sphingomyelin (Cat # S0756, Sigma Aldrich, USA), sphingosine (Cat # S7049; Sigma Aldrich, USA), L-phosphatidylethanolamine (Cat # P7943, Sigma Aldrich, USA), monosialodanglioside (GM1; Cat # G7641, Sigma Aldrich, USA), oleoly-L-?-lysophosphatidic acid (Cat # L7260, Sigma Aldrich, USA), palmitic acid (Cat # P5917, Sigma Aldrich, USA), sphingomyelin (Cat # S0756, Sigma Aldrich, USA), sphingosine (Cat # S7049; Sigma Aldrich, USA), L-?-phosphatidylethanolamine (Cat # P7943, Sigma Aldrich, USA), monosialodanglioside (GM1; Cat # G7641, Sigma Aldrich, USA), progesterone (Cat #102722, MP Biomedical, USA), ceramide (Cat # C2137; Sigma Aldrich, USA), triacylglycerol mix C2-C10 (Cat #17810, Sigma Aldrich, USA) and cholesteryl acetate (Cat #151114; Sigma Aldrich, USA).
Lipids were dissolved in ethanol, methanol or isopropanol for loading depending on solubility. Following lipid loading, membranes were left to dry for 20-30 minutes, then they were washed for 10 minutes in cold 10% ethanol, before they were incubated with 10 μM solution of each Rhenium molecular probe in cold 10% ethanol for one hour. Membranes were than washed four times for 10 minutes in cold 10% ethanol prior to imaging. Imaging was performed on an Image Quant Las 4000 (GE, Sweden) luminescent image analyser, with the Rhenium molecular probe being detected by excitation at 460 nm using an epi-blue light source, and detected using an 575 nm ethidium bromide filter.

[2] = Rhenium molecular probe-lipid overlay (dot blot); assay type: binding; conditions: FIG. 7
Procedure: as §1
Lipids were dissolved in ethanol, methanol or isopropanol for loading depending on solubility. […] Imaging was performed on an Image Quant Las 4000 (GE, Sweden) luminescent image analyser, with the Rhenium molecular probe being detected by excitation at 460 nm using an epi-blue light source, and detected using an 575 nm ethidium bromide filter.

[3] = Rhenium probe-lipid overlay, Example 5; assay type: binding
Procedure: To determine the binding properties of tricarbonyl-(4-cyanophenyltretrazolato)-phenanthroline-rhenium (I) (Rhenium probe) to various lipids, Rhenium probe-lipid overlay was performed using either lipids spotted onto PDVF membranes (Perkin Elmer, USA) or lipid MicroStrips (Echelon Biosciences Inc., Salt Lake City, Utah). The membranes contained at least 100 pmoles of each lipid in individual spots (supplementary table 1) or 10 μL (each in PBS) of 10% (v/v) glycerol, 1% (v/v) CHAPS, 1% (w/v) SDS, 1% (v/v) Tween20, Ecydsone (10 μg/100 μL), cholesterol (10 μg/100 μL), progesterone (10 μg/100 μL), PBS, or 1% (v/v) ethanol; and were incubated with 0.5 mM of Rhenium probe in 1% (w/v) BSA/PBS for 40 minutes and then washed four times for 10 minutes in PBS. Imaging was performed on an Image Quant Las 4000 (GE, Sweden) luminescent image analyser, with the Rhenium probe being detected by excitation at 460 nm using an epi-blue light source, and detected using an 605 nm ethidium bromide filter.

[4] = system: Drosophila fat body tissue; assay: Live staining and confocal imaging of explanted fat body tissue; assay type: cell-based
Procedure: All stocks were maintained in standard medium at 25° C. The yeast GAL4-UAS system was used for targeted gene expression (Brand and Perrimon, 1993). Fat-body specific expression of transgenes from the UAS were driven by CG-GAL4 (Asha et al., 2003). Transgenic UAS-Atg9RNAi stocks (#34901) and UAS-TorTED stocks (#7013) were obtained from the Bloomington Drosophila Stock Centre (Indiana University, IN, USA). Atg8aGFP was driven by an endogenous promoter (Kelso et al., 2004).
Bromophenol-blue was added to the fly media and used to define different developmental time points. […] Newly formed white pupae (0 h PF), were isolated onto moist filter paper and incubated at 25° C. for either two hours (+2 h PF) or four hours (+4 h PF).
Third instar larvae at −8 h PF were removed from standard media (normally feeding at this developmental stage) and placed on filter paper either soaked in 5% (w/v) sucrose (for amino acid deprivation), or 5% (w/v) tryptone pancreatic digest of casein (BD Bioscience USA; for carbohydrate deprivation), or soaked in water (for complete starvation). Larvae were incubated for 4-5 hours prior tissue isolation and imaging.
Fat body tissue was dissected into PBS from Drosophila larvae or pupae. The fat body tissue was either incubated with 10 μM tricarbonyl phenanthrolin (4-cyanophenyltretrazolato) Rhenium (I) in PBS for 15 minutes at room temperature, or LysoTracker® green (according to manufacturer instructions; Invitrogen, USA) and then mounted in carbomer-940 (Snowdrift farm, Tucson, USA) based optical coupling gel to prevent dehydration prior to imaging (Rothstein et al., 2006). For Oil Red O staining, fat body tissue was fixed in 4% (v/v) paraformaldehyde for 20 minutes, and incubated in 1/100 Oil Red 0 for 30 minutes and then washed in PBS before mounting in 80% glycerol.
A Ziess LSM710 META NLO confocal microscope (Zeiss, Germany), supplemented with a two-photon Mai-Tai® (tunable Ti:Sapphire femtosecond pulse laser, 710-920 nm, Spectra-Physics, Australia) was used for imaging. The images were acquired using a Plan-APOCHROMAT 63×/NA1.4 oil immersion objective. The Rhenium probe was excited at 830 nm using the two-photon pulse laser and detect at 600-654 nm. LysoTracker® green was imaged by excitation at 488 nm and detected at 497-558 nm. Atg8a-GFP was imaged with the Rhenium probe by excitation at 830 nm and resolved using spectral un-mixing using the Zen software package (based on spectral figure-printing of the two components). The Rhenium probe images and co-location analysis involved at least five separate images from five independent biological replicates, and one representative image from each treatment was selected for presentation (containing a minimum of 2 cells). For image quantification, two regions of interest (ROI) were selected at random with an area of 2500 μm^2 and the number of fluorescent puncta within the area counted, to give a minimum of 10 counts per treatment group. Comparison of means was performed by ANOVA with a Tukey post hoc tested in GraphPad Prism V.6.01 (USA).

[5] = 0.5 mM probe in 1% BSA/PBS, FIG. 6

SMILES: N#Cc1ccc(-c2nn[n]([Re](=[C]=O)(=[C]=O)=[C]=O)n2)cc1.c1cnc2c(c1)ccc1cccnc12 [PhenCyano, Triscarbonyl phenanthroline (4-cyanophenyltetrazolato)Rhenium(I)]
- interaction with Lysophosphatidic acid (dot blot) ([1]; 10 μM probe, 50 μM lipid on PVDF membrane): ✓
- affinity towards lysophosphatidic acid, in words ([1]; FIG. 7): some affinity
- interaction with fatty acid (palmitic acid), in words [2]: no interaction detected
- reactivity with long chain fatty acids ([3]; 0.5 mM probe in 1% BSA/PBS): did not react
- reactivity with neutral lipids ([3]; 0.5 mM probe in 1% BSA/PBS): did not react
- interaction with cholesterol [3, 5]: interacted
- interaction with ecdysone [3, 5]: interacted
- interaction with progesterone [3, 5]: interacted
- reactivity with CHAPS [3, 5]: high level of reactivity
- reactivity with deoxycholate [3, 5]: high level of reactivity
- reactivity with SDS ([3]; auto-reactivity of SDS alone at 575-605 nm on membrane): some residual background reactivity
- reactivity with Tween® 20 ([3]; auto-reactivity of Tween 20 alone at 575-605 nm on membrane): some residual background reactivity
- probe distribution in fat body ([4]; 0 h PF, 10 μM probe, 15 minutes): most of the Rhenium probe was still inside lipid droplets
- probe distribution in fat body ([4]; +2 h PF, 10 μM probe, 15 minutes): dramatic reduction in the amount of Rhenium probe interacting with lipid droplets
- vesicles staining with the probe that were also Atg8a-GFP positive ([4]; −4 h PF larvae starved (amino acid and sugar deprivation)): approximately 90±11%
- probe distribution in fat body ([4]; −4 h PF, 10 μM probe, 15 minutes): interacted with the core of lipid droplets
- probe distribution in fat body ([4]; −8 h PF, dominant negative TorTED expression): almost all of the Rhenium probe in LysoTracker® green positive vesicles
